Measured values reported in patent publication US7531568B2, “PPAR active compounds” (Plexxikon, Inc., priority 2004, dated 2009).

Key:
PPARδ [1] = molecular target: T1, PPARδ (Homo sapiens, UniProt Q03181); assay: homogenous Alpha screen assay, agonist mode, coactivator Biotin-PGC-1 peptide recruitment; assay type: biochemical; conditions: His-tagged PPAR-LBD 10 nM, 25 nM biotin-PGC-1 peptide, 1 hour room temperature; read-out: EC50 with respect to PPARδ
T1 construct: P1057. pET BAM6 PPARD G165-Y441-X; made in house; host or cells: E. coli BL21(DE3)RIL
T1 sequence (Q03181 with tags, fused parts or gaps): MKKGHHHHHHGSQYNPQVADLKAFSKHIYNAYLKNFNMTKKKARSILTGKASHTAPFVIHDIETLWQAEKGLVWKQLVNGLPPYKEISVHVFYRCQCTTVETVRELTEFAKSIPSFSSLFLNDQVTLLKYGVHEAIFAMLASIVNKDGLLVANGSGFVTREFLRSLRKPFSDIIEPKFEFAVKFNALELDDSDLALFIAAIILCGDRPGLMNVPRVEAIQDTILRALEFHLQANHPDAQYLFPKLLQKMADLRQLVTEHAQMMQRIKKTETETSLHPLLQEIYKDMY
Excerpt: (§1) Plasmids encoding the Ligand-binding domains (LBDs) of PPARα, PPARγ, and PPARδ were engineered using common polymerase chain reaction (PCR) methods (pGal4-PPARα-LBD, pGal4-PPARγ-LBD, pGal4-PPARδ-LBD). The relevant DNA sequences and encoded protein sequences used in the assay are shown for each (see below). Complementary DNA cloned from various human tissues was purchased from Invitrogen, and these were used as substrates in the PCR reactions. Specific custom synthetic oligonucleotide primers (Invitrogen, see below) were designed to initiate the PCR product, and also to provide the appropriate restriction enzyme cleavage sites for ligation with the plasmids.
For PPARδ protein expression, single colonies were grown for 4 hrs at 37° C. in 200 mL LB media. 16×1 L of fresh TB media in 2.8 L flasks were inoculated with 10 mL of starter culture and grown with constant shaking at 37° C. […] Cells were harvested by centrifugation and pellets frozen at −80° C. until ready for lysis/purification. […]
(§2) The homogenous Alpha screen assay was used in the agonist mode to determine the ligand dependent interaction of the PPARs (α,δ,γ) with the coactivator Biotin-PGC- 1 peptide (biotin-AHX-[…]-CONH2 (SEQ ID NO: 13), supplied by Wyeth). […] The samples were incubated for 1 hour in the dark at room temperature before taking the reading in the Fusion alpha or Alpha Quest reader. […]

PPARγ = molecular target: T2, PPARγ (Homo sapiens, UniProt P37231); assay: as above; assay type: biochemical; conditions: His-tagged PPAR-LBD 20 nM, 25 nM biotin-PGC-1 peptide, 1 hour room temperature; read-out: EC50 with respect to PPARγ
T2 sequence (P37231 with tags, fused parts or gaps): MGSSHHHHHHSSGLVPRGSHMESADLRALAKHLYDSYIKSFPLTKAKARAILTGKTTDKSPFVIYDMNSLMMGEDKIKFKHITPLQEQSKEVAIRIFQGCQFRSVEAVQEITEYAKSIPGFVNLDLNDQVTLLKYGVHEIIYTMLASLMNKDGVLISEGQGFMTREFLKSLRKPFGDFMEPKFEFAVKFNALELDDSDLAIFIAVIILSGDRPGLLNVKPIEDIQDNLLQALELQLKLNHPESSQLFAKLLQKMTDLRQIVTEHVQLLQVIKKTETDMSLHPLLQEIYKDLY
Excerpt: as §1
For protein expression, plasmids containing genes of interest were transformed into E. coli strain BL21(DE3)RIL (Invitrogen) and transformants selected for growth on LB agar plates containing appropriate antibiotics. Single colonies were grown for 4 hrs at 37° C. in 200 ml LB media. […]. […]
as §2

PPARδ [2] = molecular target: T3, PPARδ (Homo sapiens, UniProt Q03181); conditions: cited from earlier work
T3 sequence (Q03181 1-441): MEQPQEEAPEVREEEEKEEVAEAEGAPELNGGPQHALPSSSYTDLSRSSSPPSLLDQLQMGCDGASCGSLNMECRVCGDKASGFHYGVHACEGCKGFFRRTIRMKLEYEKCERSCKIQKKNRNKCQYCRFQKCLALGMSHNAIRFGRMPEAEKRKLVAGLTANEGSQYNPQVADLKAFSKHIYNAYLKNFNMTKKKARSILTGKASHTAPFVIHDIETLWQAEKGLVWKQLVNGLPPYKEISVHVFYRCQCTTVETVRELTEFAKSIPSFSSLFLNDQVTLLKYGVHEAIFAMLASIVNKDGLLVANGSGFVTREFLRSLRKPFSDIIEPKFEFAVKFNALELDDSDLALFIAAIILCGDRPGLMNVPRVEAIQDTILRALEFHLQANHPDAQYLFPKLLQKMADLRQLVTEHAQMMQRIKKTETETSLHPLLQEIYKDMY

murine PPARα = molecular target: T4, murine PPARα (Mus musculus, UniProt P23204); conditions: cited from earlier work
T4 sequence (P23204 1-468): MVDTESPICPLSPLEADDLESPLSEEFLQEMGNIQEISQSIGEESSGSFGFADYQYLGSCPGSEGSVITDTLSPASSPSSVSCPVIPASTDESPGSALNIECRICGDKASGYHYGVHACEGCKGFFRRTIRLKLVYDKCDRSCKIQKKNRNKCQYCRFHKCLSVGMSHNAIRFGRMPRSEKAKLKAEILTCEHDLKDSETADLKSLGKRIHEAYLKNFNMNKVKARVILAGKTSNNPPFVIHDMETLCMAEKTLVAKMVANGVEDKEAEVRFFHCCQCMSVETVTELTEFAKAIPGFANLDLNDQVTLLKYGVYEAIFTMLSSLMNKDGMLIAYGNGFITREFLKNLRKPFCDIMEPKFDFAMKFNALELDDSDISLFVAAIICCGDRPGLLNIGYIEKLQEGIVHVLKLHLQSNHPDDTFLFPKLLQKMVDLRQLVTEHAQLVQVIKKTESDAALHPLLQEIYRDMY

[3] = recent large prospective trial; cited from earlier work

## COc1ccc2c(c1)c(SCC(=O)O)cn2S(=O)(=O)c1ccc(Cl)c(Cl)c1 [Compound 27, [1-(3,4-dichloro-benzenesulfonyl)-5-methoxy-1H-indol-3-ylsulfanyl]-acetic acid]
PPARδ [1]
  EC50: < 1 µM
PPARγ
  EC50: < 1 µM

## CCCc1c(OCCCOc2ccc(OCC(=O)O)cc2)ccc(C(C)=O)c1O [Compound L-165041]
PPARδ [2]
  agonist selectivity for PPARδ over PPARγ: approximately 30 fold
Murine PPARα
  activity on murine PPARα: inactive

## Cc1ccc(C)c(OCCCC(C)(C)C(=O)O)c1 [gemfibrozil]
[3]
  reduction in cardiovascular events or death: 22%
